This is an account of results in US11834431B2, “Crystals of cyclic amine derivative and pharmaceutical use thereof” (Toray Industries, Inc., priority 2016, dated 2023).

Data set [1] can be described thus: Dissolution of amorphous matter in various solvents (selection of crystallization solvents). Format: physicochemical. As to the method:
The amorphous matter (10 mg) of compound (I) was weighed into a borosilicate glass vial, each solvent in Table 3 was added at the corresponding amount of solvent added in Table 3, and confirmed whether or not the amorphous matter was dissolved. […] Subsequently, the vial was shaken at room temperature in an airtight state for 7 days. However, no solid precipitated in either case. […] It was therefore judged that they were unsuitable as a crystallization solvent.

Data set [2] can be described thus: Evaluation of hygroscopicity (equilibrium moisture measurement). To be noted: 30° C. Type of data set: physicochemical. Here is the method: Equilibrium moisture measurement was performed on Form A crystal and the amorphous matter of compound (I) under the following conditions using a fully automated symmetric vapor sorption analyzer (TA Instruments Inc.; VTI-SA+). […] The change in appearance was also observed.

Data set [3] is described as follows: Evaluation of storage stability, Form A crystal versus amorphous matter (HPLC purity). Format: physicochemical. To be noted: airtight state.
Data set [4] is described as follows: Evaluation of solubility in Japanese Pharmacopoeia test fluids. Particulars: aqueous buffer, thermodynamic from solid; 2nd fluid for disintegration test of the Japanese Pharmacopoeia 16th edition (pH 6.8), 37° C., 30 minutes; read-out: Solubility (37° C.). Type of data set: physicochemical. Here is the method: Form A crystal of compound (I) (100 mg) was weighed into a borosilicate glass vial, and the 1st fluid for disintegration test/1st fluid for dissolution test of the Japanese Pharmacopoeia 16th edition (pH 1.2)(1 mL) or the 2nd fluid for disintegration test of the Japanese Pharmacopoeia 16th edition (pH 6.8)(1 mL) was added in a temperature and humidity test chamber (Amefrec Co., Ltd.; NO DOORα) adjusted to 37° C., followed by stirring. Form B crystal of ethane disulfonate of compound (I) (10 mg) was weighed into a borosilicate glass vial, and the 2nd fluid for disintegration test of the Japanese Pharmacopoeia 16th edition (pH 6.8) (0.1 mL) was added in a temperature and humidity test chamber (Amefrec Co., Ltd.; NO DOORα) adjusted to 37° C., followed by stirring. After 30 minutes, the inside of each vial was visually checked, and it was confirmed that each crystal was completely dissolved.

In data set [5] the test system is spinal nerve ligation model rats (neuropathic pain model rats). Nature of the data set: Analgesic effect on allodynia in spinal nerve ligation model rats (von Frey, 50% response threshold). Type of data set: in vivo, rat. Particulars: oral 10 mg/kg, measured 3 hours after administration, 8 days after ligation, compared to negative control group. Here is the method:
Analgesic effects of the crystal of compound (I) or the pharmacologically acceptable salt thereof upon neuropathic pain were evaluated using spinal nerve ligation model rats (Kim and Chung, Pain, 1992, vol. 50, p. 355). Form A crystal of compound (I) was used as a crystal of compound (I) or the pharmacologically acceptable salt thereof for evaluation.
The above model rats were prepared as follows. In experiments, 6-to 7-week-old SD male rats were used for 5 to 7 cases per group, and the lumbar skin and muscle of each rat were dissected to expose the L5 and L6 […] under inhalation anesthesia with isoflurane. After ligating the L5 and L6 spinal nerves with silk suture, the wound of each rat was sutured. Thus, a nerve ligation group was prepared. The group in which the nerve was exposed but not ligated was determined to be a sham surgery group.
Allodynia observed in spinal nerve ligation model rats was measured using a von Frey filaments according to a method described in a known publication (Chaplan et al., J. Neurosci. Methods, 1994, vol. 53, p. 55) and a 50% response threshold (g) was determined. Eight days after the ligation surgery, allodynia of the nerve ligation group was measured before oral administration of Form A crystal of compound (I). Rats with a 50% response threshold (average value of the right hind paw and the left hind paw) of 2 g to less than 6 g were considered to have developed allodynia. The rats were divided as neuropathic pain model rats into groups such that there was no significant difference in the 50% response threshold between groups. Allodynia was measured 3 hours after the oral administration of Form A crystal of compound (I), and the analgesic effect was evaluated. Pregabalin was used as a positive control.
Form A crystal of compound (I) was dissolved in water for injection (distilled water) to result in concentrations of 5, 10, and 20 mg/mL, and orally administered in a dose volume of 1 mL per kg body weight. Pregabalin was dissolved in water for injection (distilled water) to result in a concentration of 10 mg/mL and orally administered in a dose volume of 1 mL per kg of body weight. Water for injection (distilled water) was orally administered to the sham surgery group. A group in which water for injection (distilled water) was orally administered to rats in the nerve ligation group was defined as a negative control group.
The horizontal axis represents the solution to be administered in each group, namely, the nerve ligation group or sham surgery group, and the vertical axis represents the 50% response threshold (g) (mean±standard error, n=5 to 7). […]

The next data set deals with fibromyalgia model rats. Nature of the data set: Analgesic effect on allodynia in fibromyalgia model rats (von Frey, 50% response threshold). Format: in vivo, rat. Particulars: oral 10 mg/kg, measured 3 hours after administration, Day 7, compared to negative control group. Here is the method:
The analgesic effect of the crystal of compound (I) or the pharmacologically acceptable salt thereof against fibromyalgia syndrome was evaluated using fibromyalgia model rats (Sluka et al., Journal of Pharmacology and Experimental Therapeutics, 2002, vol. 302, pp. 1146-1150; Nagakura et al., Pain, 2009, vol. 146, pp. 26-33; Sluka et al., Pain, 2009, vol. 146, pp. 3-4). Form A crystal of compound (I) was used as a crystal of compound (I) or the pharmacologically acceptable salt thereof for evaluation.
The above model rats were prepared as follows. In experiments, 6-to 7-week-old SD male rats were used for 5 or 6 cases per group. 100 μL of acidic physiological saline adjusted to pH 4.0 was administered twice to the gastrocnemius muscle of the right hind paw of each rat (the day of the administration of acidic physiological saline was defined as Day 1 after the start of the experiment, and single dose administrations were carried out on Days 1 and 6 after the start of the experiment) under inhalation anesthesia with isoflurane. The thus prepared group was determined to be an acidic physiological saline group. As a control for the model, a group treated with a physiological saline instead of an acidic physiological saline was determined to be a physiological saline group.
Allodynia observed in fibromyalgia model rats was measured using a von Frey filaments according to a method described in a known publication (Chaplan et al., Journal of Neuroscience Methods, 1994, vol. 53, pp. 55-63) and a 50% response threshold (g) was determined. On Day 7 after the start of the experiment, allodynia was measured 3 hours after oral administration of Form A crystal of compound (I), and the analgesic effect was evaluated. Allodynia of the acidic physiological saline group was measured before oral administration of Form A crystal of compound (I). […] Allodynia was measured 3 hours after the oral administration of the crystal of compound (I), and the analgesic effect was evaluated. […]

The mark [6] stands for this setting: 40° C., relative humidity 75%, 8 weeks.

A value given as a limit tells only on which side of the number the result lay.

For the compound `CN(C)C1CCN(C(=O)C[C@H](O)c2nccn2C)CC1` [Amorphous matter, (S)-1-(4-(dimethylamino)piperidin-1-yl)-3-hydroxy-3-(1-methyl-1H-imidazol-2-yl)propan-1-one], the Appearance of solution result is given as “Soluble” in data set [1] (1-Butanol, 0.02 mL added, 500 mg/mL); “Soluble” in data set [1] (1-Propanol, 0.02 mL added, 500 mg/mL); “Soluble” in data set [1] (2-Butanone, 0.02 mL added, 500 mg/mL); “Soluble” in data set [1] (2-Propanol, 0.005 mL added, 2000 mg/mL); “Soluble” in data set [1] (2-Propanol, 0.02 mL added, 500 mg/mL); “Soluble” in data set [1] (4-Methyl-2-pentanone, 0.02 mL added, 500 mg/mL). Moreover, the Appearance of solution result in data set [1] (Acetone, 0.01 mL added, 1000 mg/mL) was “Soluble”; in data set [1] (Acetone, 0.02 mL added, 500 mg/mL), “Soluble”; in data set [1] (Acetonitrile, 0.005 mL added, 2000 mg/mL) it was “Soluble”; in data set [1] (Acetonitrile, 0.02 mL added, 500 mg/mL), “Soluble”; in data set [1] (Chlorobenzene, 0.02 mL added, 500 mg/mL), “Soluble”; in data set [1] (Chloroform, 0.005 mL added, 2000 mg/mL), “Soluble”. Moreover, the Appearance of solution entry is reported as “Soluble” in data set [1] (Chloroform, 0.02 mL added, 500 mg/mL); “Insoluble” in data set [1] (Cyclohexane, 0.02 mL added, 500 mg/mL); “not dissolved at all” in data set [1] (Cyclohexane, 3 mL added, 3 mg/mL); “Insoluble” in data set [1] (Cyclohexane, 3 mL added, 3 mg/mL, listed as amorphous matter of compound (I)); “Soluble” in data set [1] (Ethanol, 0.02 mL added, 500 mg/mL); “Soluble” in data set [1] (Ethyl acetate, 0.005 mL added, 2000 mg/mL). Further, the Appearance of solution entry in data set [1] (Ethyl acetate, 0.01 mL added, 1000 mg/mL) is “Soluble”; in data set [1] (Ethyl acetate, 0.02 mL added, 500 mg/mL), “Soluble”; in data set [1] (Ethyl formate, 0.02 mL added, 500 mg/mL) it was “Soluble”; in data set [1] (Heptane, 0.02 mL added, 500 mg/mL) it was “Insoluble”; in data set [1] (Heptane, 3 mL added, 3 mg/mL), “not dissolved at all”; in data set [1] (Heptane, 3 mL added, 3 mg/mL, listed as amorphous matter of compound (I)) it was “Insoluble”. In addition, the Appearance of solution entry in data set [1] (Isobutyl acetate, 0.02 mL added, 500 mg/mL) is “Soluble”; in data set [1] (Isopropyl acetate, 0.02 mL added, 500 mg/mL), “Soluble”; in data set [1] (Methanol, 0.005 mL added, 2000 mg/mL), “Soluble”; in data set [1] (Methanol, 0.02 mL added, 500 mg/mL) it was “Soluble”; in data set [1] (Methyl acetate, 0.02 mL added, 500 mg/mL) it was “Soluble”; in data set [1] (Tetrahydrofuran, 0.01 mL added, 1000 mg/mL), “Soluble”. In addition, the Appearance of solution result is “Soluble” in data set [1] (Tetrahydrofuran, 0.02 mL added, 500 mg/mL); “Soluble” in data set [1] (Toluene, 0.005 mL added, 2000 mg/mL); “Soluble” in data set [1] (Toluene, 0.02 mL added, 500 mg/mL); “Soluble” in data set [1] (Water, 0.02 mL added, 500 mg/mL). The “concentration at which completely dissolved” value in data set [1] (each solvent in Table 3 (text summary; cyclohexane and heptane excepted)) was no less than 500 mg/mL. Besides, the “relative humidity at which the substance deliquesced” value in data set [2] is “less than 5%”. In data set [2] (humidification, listed as amorphous matter), the Change in appearance entry is “turned into oil matter”. The “Chemical purity, After storage” value in data set [3] (setting [6]) was 97.2%; in data set [3] (60° C., 4 weeks) it was 91.5%. Also, the “Decomposition product increased by not less than 0.15% after storage” value in data set [3] (setting [6]) was 4 different; in data set [3] (60° C., 4 weeks) it was 7 different. Besides, the “Optical purity, After storage” value in data set [3] (setting [6]) was found to be 98.7 % ee; in data set [3] (60° C., 4 weeks), 98.9 % ee.

By solubility is commonly meant the dissolved amount per volume that the medium holds. For `CN(C)C1CCN(C(=O)C[C@H](O)c2nccn2C)CC1` [Form B crystal of ethane disulfonate, (S)-1-(4-(dimethylamino)piperidin-1-yl)-3-hydroxy-3-(1-methyl-1H-imidazol-2-yl)propan-1-one], the solubility at 30 min in data set [4] is greater than 100 mg/mL.

Regarding `CC(C)C[C@H](CN)CC(=O)O` [pregabalin, reference compound], the “improvement of allodynia (50% response threshold)” value (in data set [5]; in the data set with fibromyalgia model rats) was “significant improvement” throughout.
